{"source": "paper PMC12257540", "about": "“From Inhibitors to PET: SAR-Based Development of [^18F]SK60 for mIDH1 Imaging” (Journal of Medicinal Chemistry, 2025)", "key": {"IDH1-U251 cells": {"tested_on": "IDH1-U251 cells", "test": "In vitro cell uptake of [18F]SK60 in IDH1-U251 cells", "type": "cell-based, Human", "settings": "240 min incubation", "protocol": "Human U251 glioblastoma cells, stably transfected and overexpressing either wild-type IDH1 (IDH1-U251) or IDH1R132H (IDH1R132H–U251), were obtained from Jaqueline Kessler and Dirk Vordermark (Department of Radiotherapy, Martin Luther University Halle-Wittenberg, Halle/Saale, Germany). Cells were grown in RPMI 1640 medium (10% FCS), supplemented with puromycin, to ensure the cultivation of transfected cells only.\nThe IDH1-U251 and IDH1R132H–U251 cells were seeded at 4,00,000 cells/mL in a 24-well cell culture plate 1 day before the experiment. The medium was replaced by 400 μL/well, and 4 μL of a 100-x stock solution of the respective inhibitor in 10% DMSO or vehicle (10% DMSO) was added about 2 h before the experiment. The experiment was started with the addition of 100 μL of [ ^ 18 F]-SK60 (0.477 ± 0.002 MBq/mL; 4.86 ± 0.33 nM) diluted in cell culture medium per well, and the well plates were incubated in a humidified-air atmosphere incubator containing 5% CO2 at 37 °C for various times. The incubation was stopped by aspiration of the supernatant and washing the cell layers twice with prechilled PBS (500 μL/well). […] The concentrations of surface-bound and internalized activities per well were calculated as a percentage of the applied dose per well and normalized to the protein concentration per well (% AD/μg protein). […]"}, "[1]": {"test": "Ex vivo biodistribution in naïve mice", "parameters": "species or system CD-1 mice", "settings": "i.v.", "protocol": "[ ^ 18 F]-SK60 (151 ± 37.0 kBq) diluted in 200 μL of sterile isotonic saline was injected into the tail vein of restrained, awake mice. The animals were anesthetized with isoflurane at 5 (n = 2), 15 (n = 1–2), 30 (n = 3), and 60 (n = 3) min after injection; blood was collected from the retro-orbital plexus with a heparinized glass Pasteur pipet, and the anesthetized animal was sacrificed by cervical dislocation. Blood plasma was obtained by centrifugation of the whole blood (8000 rpm, 4 °C, 2 min). […] From the measured data, the uptake of the activity in the different tissues and organs at the different time points p.i. was calculated as a percentage of injected dose per gram of tissue (% ID/g) and standardized uptake values (SUV)."}, "[2]": {"test": "logD7.4 by shake-flask method (n-octanol/PBS)", "type": "physicochemical", "settings": "n-octanol/PBS pH 7.4, n = 4", "protocol": "The logD 7.4 value of [ ^ 18 F]-SK60 was experimentally determined by the conventional shake-flask method using n-octanol and PBS as the partition system.\nThe two phases were presaturated with each other. A solution of the radiotracer (10 μL, 1.1 MBq) was added to a 15 mL plastic centrifuge tube containing n-octanol (3 mL) and PBS (3 mL). The tube was vortexed for 3 min and centrifuged at 3500 rpm for 5 min (Anke TDL80–2B, China). […] The logD 7.4 was determined as the ratio of cpm/mL of the n-octanol layer to that of the buffer layer. Samples from the n-octanol layer were redistributed until consistent distribution coefficient values were obtained. The measurement was carried out in triplicate and repeated three times."}, "[3]": {"tested_on": "IDH1R132H-U251 cells (target-positive) and IDH1-U251 cells (target-negative)", "test": "Real-time radioligand binding (LigandTracer) to live U251 cells", "parameters": "species or system Human", "settings": "room temperature, medium without or with 5 % BSA", "protocol": "Real-time radioligand binding\nReal-time radioligand binding using LigandTracer®\nThe LigandTracer (LigandTracer Yellow, Ridgeview Instruments AB, Uppsala, Sweden) system allows assessment of binding kinetics (association rate constant ka and dissociation rate constant kd) and therefore dissociation constant (KD).\nBriefly, target-positive/-negative cells are seeded to different quadrants of a petri dish (Thermo Scientific Nunclon Delta #150350). Here, approximately 5x10^4 target-positive cells (IDH1R132H-U251 cells) and target-negative cells (IDH1-U251 cells) were seeded in a ~20 mm round spot (0.5 mL of a solution of 1x10^5 cells/mL), three days before the experiment. […]\nThe culture medium is removed and replaced with 3 mL CO2-independent medium (Gibco #18045088, ThermoFisher Germany) without or with bovine serum albumin (BSA) (5 %; #3737.3, Carl Roth GmbH, Karlsruhe, Germany). In the instrument, the dish rotates on an inclined base, where cells in medium (3 mL) are located on one side, while radioactivity is detected on the opposite side. This allows continuous measurements of two or more alternating parts of the dish for bound radioactivity (e.g. target-positive) against background (e.g. no cells) or target-negative cells. […]\nData was acquired in decay-corrected counts per second (CPS) and subsequently analyzed using TraceDrawer (1.9.2, Ridgeview Instruments AB, Uppsala, Sweden). […]"}}}
{"smiles": "Cc1cccc(NC(=O)c2nn(Cc3ccc([18F])cc3)c3c2CN(C(=O)c2ccc[nH]2)CC3(C)C)c1", "note": "[[18F]SK60]", "values": [{"measurement": "internalized radioligand", "setting": "IDH1-U251 cells", "result": "0.074 ± 0.023", "unit": "% AD/μg protein"}, {"measurement": "surface-bound radioligand", "setting": "IDH1-U251 cells", "result": "0.052 ± 0.029", "unit": "% AD/μg protein"}, {"measurement": "activity in kidneys and bladder", "setting": "[1]; kidneys and bladder, 60 min p.i.", "result": "< 1", "unit": "SUVmean"}, {"measurement": "accumulation in liver", "setting": "[1]; liver, 5 min p.i.", "result": "~7", "unit": "SUVmean"}, {"measurement": "accumulation in small intestine", "setting": "[1]; small intestine, 60 min p.i.", "result": "~13", "unit": "SUVmean"}, {"measurement": "logD", "setting": "[2]", "result": "2.3 ± 0.5"}, {"measurement": "real-time radioligand binding to live cells", "setting": "[3]", "result": "Reliable binding of [18F]SK60 could not be observed"}]}
